Test results: patent US20240390306A1, “Monohydrate Salt of Denatonium Acetate” (priority 2021, published 2024)
Entries after “also recorded” stand apart in the source; their conditions may differ. Where two headings read alike, the source gives them in different places.

Assays:
[1] = Polymorph screen: solvent addition to ca. 10 mg DAM, initial observation (solubility); format: physicochemical
[2] = as above; format: physicochemical; remark: listed apart in the source
Protocol: The resultant samples were refrigerated (solutions) or shaken at room temperature (suspensions) for several days. The samples that had initially formed solutions were examined for signs of solid formation after refrigeration. If solid material had formed, it was analyzed by XRPD. If no solid had formed the vials were uncapped and the solutions evaporated, and solid residues analyzed by XRPD. For samples which had initially formed suspensions-if solid was still present it was analyzed by XRPD. The supernatant from the suspension was filtered and then the filtrates were then treated as the solutions above. In some experiments further solid was obtained from evaporation of the filtrates and was analyzed by XRPD where the quantity of material allowed.

[3] = Storage under stress conditions (temperature / relative humidity); format: physicochemical
Source text: It also lost mass when taken to relative humidity levels of less than 10%.
It also loses mass when taken to relative humidity levels of less than 10%.
It was then removed from the instrument and a portion immediately analyzed by XRPD.

[4] = Particle size distribution; format: physicochemical
Source text: The sample was highly crystalline.

[5] = Gravimetric Vapor Sorption (GVS) experiments; format: physicochemical
Protocol: Several Gravimetric Vapor Sorption (GVS) experiments were carried out to investigate the behavior of DAM over a range of different relative humidity levels. […] This experiment used a similar method to GVS 1 without the steps involving 90% RH where the large mass changes were observed and equilibrium was not reached. […] Most of the mass change (1.3-1.4% increase) occurred between 0-10% RH. […] It also loses mass when taken to relative humidity levels of less than 10%.

[6] = format: physicochemical; conditions: for form by XRPD after storage: closed vial, 6 weeks
Source text: It was then removed from the instrument and a portion immediately analyzed by XRPD. […]
A summary of the characterization data for the samples of Pattern 5 can be found in Table 9.

CC(=O)[O-].CC[N+](CC)(CC(=O)Nc1c(C)cccc1C)Cc1ccccc1 [DAM, denatonium acetate monohydrate]
Initial observation ([1]; ca. 10 mg in 1,2-Dimethoxyethane, 1000 μL): Suspension | Initial observation ([1]; ca. 10 mg in 1,4-Dioxane, 1000 μL): Suspension | Initial observation ([1]; ca. 10 mg in 1-Butanol, 50 μL): Soluble | Initial observation ([1]; ca. 10 mg in 1-Propanol, 25 μL): Soluble | Initial observation ([1]; ca. 10 mg in 2-Methyl-1-Propanol, 50 μL): Soluble | Initial observation ([1]; ca. 10 mg in 2-Pentanone, 1000 μL): Suspension | Initial observation ([1]; ca. 10 mg in 2-Propanol, 50 μL): Soluble | Initial observation ([1]; ca. 10 mg in 3-Methyl-1-Butanol, 50 μL): Soluble | Initial observation ([1]; ca. 10 mg in 4-Methyl-2-pentanone, 1000 μL): Suspension | Initial observation ([1]; ca. 10 mg in Acetone + 5% water, 50 μL): Solution | Initial observation ([1]; ca. 10 mg in Acetonitrile, 200 μL): Soluble | Initial observation ([1]; ca. 10 mg in Anisole, 750 μL): Suspension | Initial observation ([1]; ca. 10 mg in Benzonitrile, 500 μL): Nearly all | Initial observation ([1]; ca. 10 mg in Benzyl alcohol, 25 μL): Solution | Initial observation ([1]; ca. 10 mg in Butyl acetate, 1000 μL): Suspension | Initial observation ([1]; ca. 10 mg in Chloroform, 50 μL): Soluble | Initial observation ([1]; ca. 10 mg in Cumene, 1000 μL): Suspension | Initial observation ([1]; ca. 10 mg in Diethyl ether, 1000 μL): Suspension | Initial observation ([1]; ca. 10 mg in EtOH + 5% water, 25 μL): Solution | Initial observation ([1]; ca. 10 mg in Ethanol, 25 μL): Soluble | Initial observation ([1]; ca. 10 mg in Formic acid, 25 μL): Soluble | Initial observation ([1]; ca. 10 mg in IPA + 5% water, 50 μL): Solution | Initial observation ([1]; ca. 10 mg in Isobutyl acetate, 1000 μL): Suspension | Initial observation ([1]; ca. 10 mg in Isopropyl acetate, 1000 μL): Suspension | Initial observation ([1]; ca. 10 mg in Methanol, 25 μL): Soluble | Initial observation ([1]; ca. 10 mg in Methyl acetate, 1000 μL): Suspension | Initial observation ([1]; ca. 10 mg in Methylbutyl ketone, 1000 μL): Suspension | Initial observation ([1]; ca. 10 mg in Pentane, 1000 μL): Suspension | Initial observation ([1]; ca. 10 mg in Propyl acetate, 1000 μL): Suspension | Initial observation ([1]; ca. 10 mg in Toluene, 1000 μL): Suspension | Initial observation ([1]; ca. 10 mg in Water, 20 μL): Soluble | Initial observation ([1]; ca. 10 mg in heptane, 1000 μL): Suspension | Initial observation ([1]; ca. 10 mg in t-Butanol, 100 μL): Soluble | Initial observation ([1]; ca. 10 mg in t-Butylmethyl ether, 1000 μL): Suspension | Initial observation ([2]; ca. 10 mg in 1-Pentanol, 50 μL): Soluble | Initial observation ([2]; ca. 10 mg in 2-Butanol, 50 μL): Soluble | Initial observation ([2]; ca. 10 mg in 2-Ethoxyethanol, 25 μL): Soluble | Initial observation ([2]; ca. 10 mg in 2-Methoxyethanol, 25 μL): Soluble | Initial observation ([2]; ca. 10 mg in Acetic acid, 25 μL): Soluble | Initial observation ([2]; ca. 10 mg in Acetone, 1000 μL): Soluble | Initial observation ([2]; ca. 10 mg in Diisopropyl ether, 1000 μL): Suspension | Initial observation ([2]; ca. 10 mg in Dimethylsulfoxide, 100 μL): Solution | Initial observation ([2]; ca. 10 mg in Ethyl acetate, 1000 μL): Suspension | Initial observation ([2]; ca. 10 mg in Ethyl formate, 50 μL): Soluble | Initial observation ([2]; ca. 10 mg in MeCN + 5% water, 50 μL): Solution | Initial observation ([2]; ca. 10 mg in MeOH + 5% water, 25 μL): Solution | Initial observation ([2]; ca. 10 mg in Methylethyl ketone, 800 μL): Soluble | Initial observation ([2]; ca. 10 mg in Tetrahydrofuran, 1000 μL): Suspension | form by XRPD after storage ([3]; 0% RH (open vial in GVS instrument, 2 days), acetate monohydrate): converted to Pattern 5; also recorded: consistent with Pattern 5; also recorded: change in form to Pattern 5 | form by XRPD after storage ([3]; 25° C., 96% RH, 7 days): Amorphous | form by XRPD after storage ([3]; 40° C., 75% RH, 7 days): Shows no change in form by XRPD after 7 days | PSD D10 [4]: 1.62 μm | PSD D50 [4]: 23.09 μm | sample appearance after GVS ([5]; post GVS 1 (40-90-0-90-0-40)): sorption cycle. Sample had formed a solid mass with powdery | sample appearance after GVS ([5]; post GVS 2 (40-80-0-80-0-40), acetate monohydrate): remained as a free-flowing powder; also recorded: Sample remained free flowing solid | sample appearance after GVS ([5]; post GVS 3 (40-0-80-0-80-0-40), acetate monohydrate): remained as a free-flowing powder; also recorded: Sample remained free flowing solid

CC(=O)[O-].CC[N+](CC)(CC(=O)Nc1c(C)cccc1C)Cc1ccccc1 [Pattern 5]
form stability [6]: metastable | form after standing ([6]; ambient laboratory conditions, within a few hours): converts to Pattern 1 | form by XRPD after storage [6]: converted to Pattern 1 | form by XRPD after storage ([6]; listed as DAM Pattern 5): Conversion to Pattern 1 by XRPD | form by XRPD after standing ([6]; on XRPD disc at room temperature overnight): convert to Pattern 1; also recorded: reverted to Pattern 1 | form by XRPD after standing ([6]; on XRPD disc at room temperature overnight, listed as DAM Pattern 5): Conversion to Pattern 1 by XRPD | form by XRPD after standing ([6]; on XRPD disc, ambient laboratory conditions, 4 hours, listed as DAM Pattern 5): Conversion to Pattern 1 by XRPD
